Test results: PubChem BioAssay (NCI)
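Here, GI50 denotes the concentration required for 50% inhibition of growth. TGI: total growth inhibition.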

Key:
Assay in all cases: DTP human tumour cell line panel, 384-well format
HOP-62 NSCLC = test system: HOP-62 NSCLC
MDA-MB-435 melanoma = test system: MDA-MB-435 melanoma
CCRF-CEM leukemia = test system: CCRF-CEM leukemia
COLO 205 colon = test system: COLO 205 colon
NCI-H23 lung = test system: NCI-H23 lung
SF-268 CNS = test system: SF-268 CNS
K-562 leukemia = test system: K-562 leukemia
DU-145 prostate = test system: DU-145 prostate
MDA-MB-231 breast = test system: MDA-MB-231 breast
NCI-H460 NSCLC = test system: NCI-H460 NSCLC
M14 melanoma = test system: M14 melanoma
BT-549 breast = test system: BT-549 breast
SNB-75 CNS = test system: SNB-75 CNS
RPMI-8226 leukemia = test system: RPMI-8226 leukemia
PC-3 prostate = test system: PC-3 prostate
UO-31 renal = test system: UO-31 renal
SW-620 colon = test system: SW-620 colon
SK-OV-3 ovarian = test system: SK-OV-3 ovarian
KM12 colon = test system: KM12 colon
HOP-92 NSCLC = test system: HOP-92 NSCLC
SF-295 CNS = test system: SF-295 CNS
MOLT-4 leukemia = test system: MOLT-4 leukemia
HL-60(TB) leukemia = test system: HL-60(TB) leukemia
HT29 colon = test system: HT29 colon
HS 578T breast = test system: HS 578T breast
NCI-H226 lung = test system: NCI-H226 lung
SN12C renal = test system: SN12C renal
A498 renal = test system: A498 renal
HCT-116 colon = test system: HCT-116 colon
OVCAR-3 ovarian = test system: OVCAR-3 ovarian

## Cc1ccccc1C(C(=O)NC1CCCCC1)N(C(=O)CNc1ncccc1F)c1cccc(F)c1 (centres undefined)
HOP-62 NSCLC
  GI50: > 100 µM
  TGI: > 100 µM
MDA-MB-435 melanoma
  GI50: > 100 µM
  TGI: > 100 µM
CCRF-CEM leukemia
  GI50: > 100 µM
  TGI: > 100 µM
COLO 205 colon
  GI50: > 100 µM
  TGI: > 100 µM
NCI-H23 lung
  GI50: > 100 µM
  TGI: > 100 µM
SF-268 CNS
  GI50: > 100 µM
  TGI: > 100 µM
K-562 leukemia
  GI50: > 100 µM
  TGI: > 100 µM
DU-145 prostate
  GI50: > 100 µM
  TGI: > 100 µM
MDA-MB-231 breast
  GI50: > 100 µM
  TGI: > 100 µM
NCI-H460 NSCLC
  GI50: > 100 µM
  TGI: > 100 µM
M14 melanoma
  GI50: > 100 µM
  TGI: > 100 µM
BT-549 breast
  GI50: > 100 µM
  TGI: > 100 µM
SNB-75 CNS
  GI50: > 100 µM
  TGI: > 100 µM
RPMI-8226 leukemia
  GI50: > 100 µM
  TGI: > 100 µM
PC-3 prostate
  GI50: > 100 µM
  TGI: > 100 µM
UO-31 renal
  GI50: > 100 µM
  TGI: > 100 µM
SW-620 colon
  GI50: > 100 µM
  TGI: > 100 µM
SK-OV-3 ovarian
  GI50: > 100 µM
  TGI: > 100 µM
KM12 colon
  GI50: > 100 µM
  TGI: > 100 µM
HOP-92 NSCLC
  GI50: > 100 µM
  TGI: > 100 µM
SF-295 CNS
  GI50: > 100 µM
  TGI: > 100 µM
MOLT-4 leukemia
  GI50: > 100 µM
  TGI: > 100 µM
HL-60(TB) leukemia
  GI50: > 100 µM
  TGI: > 100 µM
HT29 colon
  GI50: > 100 µM
  TGI: > 100 µM
HS 578T breast
  GI50: > 100 µM
  TGI: > 100 µM
NCI-H226 lung
  GI50: > 100 µM
  TGI: > 100 µM
SN12C renal
  GI50: > 100 µM
  TGI: > 100 µM
A498 renal
  GI50: > 100 µM
  TGI: > 100 µM
HCT-116 colon
  GI50: > 100 µM
  TGI: > 100 µM
OVCAR-3 ovarian
  GI50: > 100 µM
